Consider 41 compounds from patent US8088806B2 (Achillion Pharmaceuticals, Inc., priority 2005, dated 2012).

Each structure is given as a SMILES string.

In the assay the test system is HCV replicon. Put plainly: Replicon based assay of HCV replication inhibition (NPT ELISA). The assay is classed as cell-based, Hepatitis C virus. The settings on record: Hepatitis C virus, replicon based assay of HCV replication inhibition; Table IV; read-out: Activity. The procedure, abridged: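 Huh-7 cells carrying a bicistronic HCV replicon (neo, EMCV-IRES-driven NS3–NS5B) treated overnight after seeding with usually 6 concentrations, 10 to 0.03 micromolar, for three days at 37° C without G418. Replication read as NPT level by captured ELISA; matched-DMSO wells and interferon alpha as controls.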
Background: A replicon is a self-replicating genome or part of one, used to study replication in cells.
With `NC(=O)c1sccc1-c1csc(Nc2ccc(OCC3CCCCC3)c(F)c2)n1` [compound 725, 3-(2-(4-(cyclohexylmethoxy)-3-fluorophenylamino)thiazol-4-yl)thiophene-2-carboxamide], the EC50 was below 1 µM.

For `Fc1cc(Nc2nc(-c3ccc(-c4csnn4)cc3)cs2)ccc1OCC1CCCCC1` [compound 726, 4-(4-(1,2,3-thiadiazol-4-yl)phenyl)-N-(4-(cyclohexylmethoxy)-3-fluorophenyl)thiazol-2-amine], the EC50 was in the range of 1 to 10 µM.

For the compound `O=C1CSc2cc(-c3csc(Nc4ccc(OCC5CCCCC5)c(F)c4)n3)ccc2N1` [compound 727, 7-(2-(4-(cyclohexylmethoxy)-3-fluorophenylamino)thiazol-4-yl)-2H-benzo[b][1,4]thiazin-3(4H)-one], the EC50 was in the range of 1 to 10 µM.

Take `N#Cc1cncc(-c2csc(Nc3ccc(OCC4CCCCC4)c(F)c3)n2)c1` [compound 728, 5-(2-(4-(cyclohexylmethoxy)-3-fluorophenylamino)thiazol-4-yl)pyridine-3-carbonitrile]: the EC50 was below 1 µM.

For `N#Cc1sccc1-c1csc(Nc2ccc(OCC3CCCCC3)c(F)c2)n1` [compound 729, 3-(2-(4-(cyclohexylmethoxy)-3-fluorophenylamino)thiazol-4-yl)thiophene-2-carbonitrile], the EC50 is below 1 µM.

On to `CCCCCCCCOc1ccc(Nc2nc(-c3cccc(C(=O)OCC)n3)cs2)cc1C(F)(F)F` [compound 730, ethyl 6-(2-(3-(trifluoromethyl)-4-(octyloxy)phenylamino)thiazol-4-yl)pyridine-2-carboxylate], for which the EC50 was below 1 µM.

On to `CCCCCCCCOc1ccc(Nc2nc(-c3nc(C(=O)OCC)cs3)cs2)cc1C(F)(F)F` [compound 731, ethyl 2-(2-(3-(trifluoromethyl)-4-(octyloxy)phenylamino)thiazol-4-yl)thiazole-4-carboxylate], for which the EC50 is below 1 µM.

In the case of `CCCCCCCCOc1ccc(Nc2nc(-c3ncc(C(=O)OCC)s3)cs2)cc1C(F)(F)F` [compound 732, ethyl 2-(2-(3-(trifluoromethyl)-4-(octyloxy)phenylamino)thiazol-4-yl)thiazole-5-carboxylate], the EC50 is below 1 µM.

On to `CCCCCCCCOc1ccc(Nc2nc(-c3ccc(O)nc3)cs2)cc1C(F)(F)F` [compound 733, 5-(2-(3-(trifluoromethyl)-4-(octyloxy)phenylamino)thiazol-4-yl)pyridin-2-ol], for which the EC50 was below 1 µM.

`CCCCCCCCOc1ccc(Nc2nc(-c3ccc(OC)nc3)cs2)cc1C(F)(F)F` [compound 734, N-(3-(trifluoromethyl)-4-(octyloxy)phenyl)-4-(6-methoxypyridin-3-yl)thiazol-2-amine]: the EC50 is below 1 µM.

Regarding `CN(C)c1ccc(-c2csc(Nc3ccc(OC4CCCC4)c(C(F)(F)F)c3)n2)cn1` [compound 735, 5-(2-(4-(cyclopentyloxy)-3-(trifluoromethyl)phenylamino)thiazol-4-yl)-N,N-dimethylpyridin-2-amine], the EC50 was in the range of 1 to 10 µM.

Regarding `c1ccc(-c2nc3cc(Nc4nc(-c5cccnc5)cs4)ccc3o2)cc1` [compound 736, 2-phenyl-N-(4-(pyridin-3-yl)thiazol-2-yl)benzo[d]oxazol-5-amine], the EC50 is below 1 µM.

`c1cncc(-c2csc(Nc3ccc4c(c3)OCCO4)n2)c1` [compound 737, N-(2,3-dihydrobenzo[b][1,4]dioxin-6-yl)-4-(pyridin-3-yl)thiazol-2-amine]: the EC50 is above 10 µM.

Turning to `Clc1ccc(-c2cc(Nc3nc(-c4cccnc4)cs3)[nH]n2)cc1` [compound 738, 3-(4-chlorophenyl)-N-(4-(pyridin-3-yl)thiazol-2-yl)-1H-pyrazol-5-amine], the EC50 is above 10 µM.

In the case of `Brc1ccc(Nc2nc(-c3cccnc3)cs2)nc1` [compound 739, 5-bromo-N-(4-(pyridin-3-yl)thiazol-2-yl)pyridin-2-amine], the EC50 was above 10 µM.

For the compound `c1cncc(-c2csc(Nc3ccc4c(c3)OCO4)n2)c1` [compound 740, N-(benzo[d][1,3]dioxol-6-yl)-4-(pyridin-3-yl)thiazol-2-amine], the EC50 was above 10 µM.

Take `COc1ccc(Nc2nc(-c3cccnc3)cs2)cc1OC1CCCC1` [compound 741, N-(3-(cyclopentyloxy)-4-methoxyphenyl)-4-(pyridin-3-yl)thiazol-2-amine]: the EC50 fell in the range of 1 to 10 µM.

With `Clc1cc(Nc2nc(-c3cccnc3)cs2)ccc1N1CCOCC1` [compound 742, N-(3-chloro-4-morpholinophenyl)-4-(pyridin-3-yl)thiazol-2-amine], the EC50 is 1 to 10 µM.

Consider `CN1Cc2c(Nc3nc(-c4cccnc4)cs3)cccc2C(c2ccccc2)C1` (centres unmarked) [compound 743, 1,2,3,4-tetrahydro-2-methyl-4-phenyl-N-(4-(pyridin-3-yl)thiazol-2-yl)isoquinolin-8-amine], for which the EC50 is above 10 µM.

In the case of `COC(=O)c1sc(-c2ccccc2)cc1Nc1nc(-c2cccnc2)cs1` [compound 744, methyl 3-(4-(pyridin-3-yl)thiazol-2-ylamino)-5-phenylthiophene-2-carboxylate], the EC50 was above 10 µM.

Regarding `Cc1nc2cc(Nc3nc(-c4cccnc4)cs3)ccc2s1` [compound 745, 2-methy1-N-(4-(pyridin-3-yl)thiazol-2-yl)benzo[d]thiazol-5-amine], the EC50 is above 10 µM.

Regarding `c1cncc(-c2csc(Nc3cc(-c4cccs4)n[nH]3)n2)c1` [compound 746, N-(4-(pyridin-3-yl)thiazol-2-yl)-3-(thiophen-2-yl)-1H-pyrazol-5-amine], the EC50 was above 10 µM.

For `Cc1cccc2sc(Nc3nc(-c4cccnc4)cs3)nc12` [compound 747, 4-methyl-N-(4-(pyridin-3-yl)thiazol-2-yI)benzo[d]thiazol-2-amine], the EC50 is above 10 µM.

Regarding `Cn1nc(-c2ccccc2)cc1Nc1nc(-c2cccnc2)cs1` [compound 748, 1-methyl-3-phenyl-N-(4-(pyridin-3-yl)thiazol-2-yl)-1H-pyrazol-5-amine], the EC50 was above 10 µM.

Take `c1cc(Nc2nc(-c3cccnc3)cs2)cc(-c2cocn2)c1` [compound 749, N-(3-(oxazol-4-yl)phenyl)-4-(pyridin-3-yl)thiazol-2-amine]: the EC50 is above 10 µM.

As for `CCn1c(C)nc2cc(Nc3nc(-c4cccnc4)cs3)ccc21` [compound 750, 1-ethyl-2-methyl-N-(4-(pyridin-3-yl)thiazol-2-yl)-1H-benzo[d]imidazol-5-amine], the EC50 was above 10 µM.

As for `c1ccc(Oc2ccc(Nc3nc(-c4cccnc4)cs3)cn2)cc1` [compound 752, 6-phenoxy-N-(4-(pyridin-3-yl)thiazol-2-yl)pyridin-3-amine], the EC50 fell in the range of 1 to 10 µM.

With `c1cncc(-c2csc(Nc3ccc4ncsc4c3)n2)c1` [compound 753, N-(4-(pyridin-3-yl)thiazol-2-yl)benzo[d]thiazol-6-amine], the EC50 was above 10 µM.

Take `c1ccc(-c2cc(Nc3nc(-c4cccnc4)cs3)[nH]n2)cc1` [compound 754, 3-phenyl-N-(4-(pyridin-3-yl)thiazol-2-yl)-1H-pyrazol-5-amine]: the EC50 is above 10 µM.

With `c1cncc(-c2csc(Nc3ccc4[nH]ncc4c3)n2)c1` [compound 755, N-(4-(pyridin-3-yl)thiazol-2-yl)-1H-indazol-5-amine], the EC50 is above 10 µM.

Take `c1ccc(-c2ccc(Nc3nc(-c4cccnc4)cs3)cn2)cc1` [compound 756, 6-phenyl-N-(4-(pyridin-3-yl)thiazol-2-yl)pyridin-3-amine]: the EC50 was 1 to 10 µM.

Consider `c1ccc(CCc2ccc(Nc3nc(-c4cccnc4)cs3)cc2)cc1` [compound 757, N-(4-phenethylphenyl)-4-(pyridin-3-yl)thiazol-2-amine], for which the EC50 is below 1 µM.

Regarding `CCN(CC)CCOC(=O)c1ccc(Nc2nc(-c3cccnc3)cs2)cc1` [compound 758, 2-(diethylamino)ethyl 4-(4-(pyridin-3-yl)thiazol-2-ylamino)benzoate], the EC50 is above 10 µM.

As for `CCN(CC)C(=O)c1cccc(Nc2nc(-c3cccnc3)cs2)c1` [compound 759, 3-(4-(pyridin-3-yl)thiazol-2-ylamino)-N,N-diethylbenzamide], the EC50 was above 10 µM.

Consider `O=C(c1ccccc1)c1cccc(Nc2nc(-c3cccnc3)cs2)c1` [compound 760, (3-(4-(pyridin-3-yl)thiazol-2-ylamino)phenyl)(phenyl) methanone], for which the EC50 was above 10 µM.

As for `c1cncc(-c2csc(Nc3ccc4nccnc4c3)n2)c1` [compound 761, N-(4-(pyridin-3-yl)thiazol-2-yl)quinoxalin-6-amine], the EC50 was above 10 µM.

With `[2H]c1ccc2nc(-c3csc(Nc4ccc(OCC5CCCCC5)c(C(F)(F)F)c4)n3)ccc2n1` [compound 762, N-(4-(cyclohexylmethoxy)-3-(trifluoromethyl)phenyl)-4-(2-deuterated-1,5-naphthyridin-6-yl)thiazol-2-amine], the EC50 was in the range of 1 to 10 µM.

Take `FC(F)(F)c1cc(Nc2nc(-c3cncnc3-c3ccccc3)cs2)ccc1OCC1CCCCC1` [compound 763, N-(4-(cyclohexylmethoxy)-3-(trifluoromethyl)phenyl)-4-(4-phenylpyrimidin-5-yl)thiazol-2-amine]: the EC50 fell in the range of 1 to 10 µM.

Take `N#Cc1ccc(-c2csc(Nc3ccc(OCC4CCCCC4)c(C(F)(F)F)c3)n2)o1` [compound 764, 5-(2-(4-(cyclohexylmethoxy)-3-(trifluoromethyl)phenylamino)thiazol-4-yl)furan-2-carbonitrile]: the EC50 is below 1 µM.

Consider `OCc1cc2cc(-c3csc(Nc4ccc(OCC5CCCCC5)c(C(F)(F)F)c4)n3)ccc2o1` [compound 765, (5-(2-(4-(cyclohexylmethoxy)-3-(trifluoromethyl)phenylamino)thiazol-4-yl)benzofuran-2-yl)methanol], for which the EC50 was below 1 µM.

Regarding `FC(F)(F)c1ccc(-c2csc(Nc3ccc(OCC4CCCCC4)c(C(F)(F)F)c3)n2)nc1` [compound 766, N-(4-(cyclohexylmethoxy)-3-(trifluoromethyl)phenyl)-4-(5-(trifluoromethyl)pyridin-2-yl)thiazol-2-amine], the EC50 is below 1 µM.
